Laboratory results taken from patent US20230116703A1, “NOVEL ERGOLINES AND METHODS OF TREATING MOOD DISORDERS” (priority 2021, published 2023).
Like-named read-outs stand apart in the source and are kept apart here.

How the values were obtained:
5-HT2A receptor [1] = molecular target: T1, 5-HT2A receptor (Homo sapiens, UniProt P28223); assay: biochemical; format: binding; details: 1 nM [^3H]ketanserin, HEK293 stable cell line; read-out: 5-HT2A Receptor Ki (nM) ([^3H]ketanserin)
T1 construct: host or cells: HEK293
How it was run: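 Affinity was measured in radioligand binding experiments using [^3H]ketanserin as the labelled ligand, following methods adapted from published procedures.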

5-HT2A receptor [2] = molecular target: T1, 5-HT2A receptor; assay: cell-based; format: cell-based; details: Ca^2+ flux, agonist; read-out: 5-HT2A EC50
5-HT1A receptor = molecular target: T2, 5-HT1A receptor (Homo sapiens, UniProt P08908); assay: cell-based
T2 construct: host or cells: CHO cells
T2 sequence (P08908 1-422): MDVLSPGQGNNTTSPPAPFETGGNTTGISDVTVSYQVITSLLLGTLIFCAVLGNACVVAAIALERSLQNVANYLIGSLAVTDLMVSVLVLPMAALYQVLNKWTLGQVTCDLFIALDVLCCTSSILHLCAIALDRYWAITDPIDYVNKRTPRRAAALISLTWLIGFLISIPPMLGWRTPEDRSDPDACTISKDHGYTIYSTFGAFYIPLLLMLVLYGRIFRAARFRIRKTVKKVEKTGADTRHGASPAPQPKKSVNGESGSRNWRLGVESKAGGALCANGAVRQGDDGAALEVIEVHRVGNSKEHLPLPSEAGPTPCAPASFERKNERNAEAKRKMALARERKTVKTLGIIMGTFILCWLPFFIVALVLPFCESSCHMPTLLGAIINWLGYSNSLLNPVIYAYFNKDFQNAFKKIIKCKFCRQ

5-HT2B receptor = molecular target: T3, 5-HT2B receptor (Homo sapiens, UniProt P41595); assay: cell-based; details: Ca^2+ flux, agonist; read-out: 5-HT2B EC50
T3 construct: host or cells: HEK293

human 5-HT2C receptor = molecular target: T4, human 5-HT2C receptor (Homo sapiens, UniProt P28335); assay: cell-based; details: Ca^2+ flux, agonist
T4 sequence (P28335 33-458): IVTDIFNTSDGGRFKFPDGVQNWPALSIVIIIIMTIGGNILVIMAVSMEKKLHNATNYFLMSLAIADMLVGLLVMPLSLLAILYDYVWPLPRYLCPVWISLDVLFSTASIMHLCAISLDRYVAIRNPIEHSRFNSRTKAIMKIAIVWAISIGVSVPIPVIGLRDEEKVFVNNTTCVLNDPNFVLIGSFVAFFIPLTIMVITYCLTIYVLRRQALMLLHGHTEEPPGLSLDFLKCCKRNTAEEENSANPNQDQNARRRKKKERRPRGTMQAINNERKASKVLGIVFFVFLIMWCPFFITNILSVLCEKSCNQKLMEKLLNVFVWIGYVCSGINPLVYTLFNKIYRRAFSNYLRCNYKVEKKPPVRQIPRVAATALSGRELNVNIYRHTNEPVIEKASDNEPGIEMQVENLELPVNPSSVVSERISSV

5-HT2A receptor [3] = molecular target: T1, 5-HT2A receptor; assay: PathHunter beta-arrestin recruitment assay at 5-HT2A; format: cell-based; details: for agonist type in arrestin recruitment assay (in words) / Emax: 5-HT2A beta-arrestin
Method: The degree of arrestin bias varied substantially across the other compounds tested as well.
Arrestin Functional Assay at 5-HT2A. Recruitment of beta-arrestin was determined using a PathHunter assay at Eurofins DiscoverX (Fremont, Calif.) according to their standard protocols. PathHunter GPCR beta-arrestin assays take advantage of DiscoverX's proprietary Enzyme Fragment Complementation technology. The GPCR is fused in frame with a small enzyme donor fragment ProLink™ (PK) and co-expressed in cells stably expressing a fusion protein of beta-arrestin and the larger, N-terminal deletion mutant of beta-galactosidase. Activation of the GPCR (5-HT2A receptor in this case) stimulates binding of beta-arrestin to the PK-tagged GPCR and forces complementation of the two enzyme fragments, resulting in the formation of an active beta-galactosidase enzyme. This interaction leads to an increase in enzyme activity that can be measured using chemiluminescent PathHunter Detection Reagents. Briefly, PathHunter cells expressing 5-HT2A receptors were seeded in a volume of 20 μL into 384-well plates and incubated at 37° C. for the appropriate time prior to testing. […] Plates were then imaged on a microplate reader and the agonist activity was calculated using the following formula: % Activity=100%×(mean RLU of test sample−mean RLU of vehicle control)/(mean MAX control ligand−mean RLU of vehicle control), where RLU=relative light units.

C57BL/6 mice = assay: Head twitch response (HTR) in mice; format: in vivo, mouse; details: SC; for ED50: 20 min, read-out: ED50 (95% CI); for ED50 / Most Efficacious Dose / Emax (95% CI): mouse HTR; for ED50 / Emax (95% CI): 20 min observation, curve fit, poor in some cases
Method: Agonists of the 5-HT2A receptor are well known to induce this effect in rodents and the potency of this HTR is correlated with hallucinogenic potency in humans.
Animals. Adult male C57BL/6 mice, aged 6-8 weeks (body weight 20-25 g) were used in this experiment. Animals were housed under controlled temperatures and 12-hour light/dark cycles (lights on between 07:00-19:00 h), with ad libitum food and water. This study was carried out in strict accordance with the requirements of the Committee for the Purpose of Control and Supervision of Experiments on Animals (CPCSEA), India. All efforts were made to minimize suffering.
Drugs and Drug Administration. Compound 1 was synthesized as described above. It was administered subcutaneously (SC) dissolved in saline vehicle at a volume of 10 mL/kg. Five doses were tested, with n=6 animals/group. Doses were calculated on the basis of the freebase.
Procedure. Mice were administered one dose of the drug and immediately placed into a small open field for behavioral observation. Animals were observed continuously for 20 mins and the number of head twitches (HTs) were counted by an observer blind to the treatment condition.
Statistical Analysis. The data points shown are the mean±standard error of the mean (SEM). Analysis was performed using GraphPad Prism 6. Curves were fit using a non-linear gaussian distribution to calculate ED50 and Emax values.
Additional disclosed compounds were tested in the mouse head twitch response (HTR) assay according to the procedure described in Example 43. […] Lastly, compounds with much larger benzyl and phenethyl substituents on the amine nitrogen (e.g., 10 and 11) were low efficacy in this assay, consistent with their lower maximal efficacy in the arrestin functional assay (see Example 41).

[4] = Metabolic stability in human liver microsomes (HLM); format: in vitro ADME; details: for t1/2: 1 μM, 0.50 mg protein per mL; for microsomal CLint at 1 μM: both sexes, human, pooled human liver microsomes, pH 7.4, 0.50 mg protein per mL
From the text: HLM Stability. Pooled HLM from adult male and female donors (Corning 452117) were used.

[5] = Metabolic stability in mouse liver microsomes (MLM); format: in vitro ADME; details: 0.50 mg protein per mL; for t1/2: MLM (CD-1), 1 μM; for microsomal CLint at 1 μM: mouse, pooled mouse liver microsomes, pH 7.4, MLM (CD-1)
From the text: MLM Stability Pooled MLM from CD-1 mice (BIOIVT M00501) were used.

[6] = Metabolic stability in rat liver microsomes (RLM); details: for t1/2: RLM, 0.50 mg protein per mL; for microsomal CLint at 1 μM: both, rat, pooled rat liver microsomes, pH 7.4
[7] = Ca^2+ flux, agonist, read-out: 5-HT1A EC50

T1 sequence (P28223 whole entry): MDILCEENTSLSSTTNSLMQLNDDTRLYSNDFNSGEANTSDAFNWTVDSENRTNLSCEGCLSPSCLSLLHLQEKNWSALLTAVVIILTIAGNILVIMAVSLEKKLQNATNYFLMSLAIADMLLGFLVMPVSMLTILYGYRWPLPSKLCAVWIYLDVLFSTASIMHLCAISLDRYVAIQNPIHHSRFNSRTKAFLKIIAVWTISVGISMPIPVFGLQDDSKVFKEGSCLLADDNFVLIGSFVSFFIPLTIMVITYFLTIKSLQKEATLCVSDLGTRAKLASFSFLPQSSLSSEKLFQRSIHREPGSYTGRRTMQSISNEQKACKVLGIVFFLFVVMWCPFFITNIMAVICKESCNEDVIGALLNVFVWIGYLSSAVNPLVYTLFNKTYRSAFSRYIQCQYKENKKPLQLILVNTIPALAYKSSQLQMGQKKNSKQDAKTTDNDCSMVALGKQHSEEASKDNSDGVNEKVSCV
T3 sequence (P41595 whole entry): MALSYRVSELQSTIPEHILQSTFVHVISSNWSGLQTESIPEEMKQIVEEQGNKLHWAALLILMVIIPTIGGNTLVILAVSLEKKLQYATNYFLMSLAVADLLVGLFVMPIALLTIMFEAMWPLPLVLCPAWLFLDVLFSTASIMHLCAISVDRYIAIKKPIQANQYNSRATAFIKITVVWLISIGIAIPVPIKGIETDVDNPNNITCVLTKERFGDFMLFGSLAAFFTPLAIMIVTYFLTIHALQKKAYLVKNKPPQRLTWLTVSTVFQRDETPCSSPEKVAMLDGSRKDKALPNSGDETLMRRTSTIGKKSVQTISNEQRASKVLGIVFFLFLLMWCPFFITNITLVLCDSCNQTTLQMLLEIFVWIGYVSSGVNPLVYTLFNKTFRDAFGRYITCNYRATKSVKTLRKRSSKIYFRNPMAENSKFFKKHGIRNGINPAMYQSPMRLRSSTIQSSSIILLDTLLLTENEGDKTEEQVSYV

| SMILES | Ki (5-HT2A receptor [1]) [nM] | EC50 (5-HT2A receptor [2]) [nM] | EC50 (5-HT1A receptor; [7]) [nM] | EC50 (5-HT2B receptor) [nM] | EC50 (human 5-HT2C receptor) [nM] | EC50 (5-HT2A receptor [3]) [nM] | agonist type in arrestin recruitment assay (in words) (5-HT2A receptor [3]) | ED50 (C57BL/6 mice) [mg/kg] | Most Efficacious Dose (C57BL/6 mice) [mg/kg] | Emax (95% CI) (C57BL/6 mice) | t1/2 [4] [min] | microsomal CLint at 1 μM [4] [µL/min/mg] | t1/2 [5] [min] | microsomal CLint at 1 μM [5] [µL/min/mg] | t1/2 [6] [min] | microsomal CLint at 1 μM [6] [µL/min/mg] | Emax (5-HT2A receptor [3]) [%] | EC50 (5-HT1A receptor) [nM] | # HTR at Most Efficacious Dose (C57BL/6 mice; mouse, head twitches in 20 min) |
| --- | --- | --- | --- | --- | --- | --- | --- | --- | --- | --- | --- | --- | --- | --- | --- | --- | --- | --- | --- |
| CCC[C@@H](C)NC(=O)[C@@H]1C=C2c3cccc4[nH]cc(c34)C[C@H]2N(CCC)C1 [Compound 7, (6aR,9R)—N—((R)-pentan-2-yl)-7-propyl-4,6,6a,7,8,9-hexahydroindolo[4,3-fg]quinoline-9-carboxamide] | 0.85 | 13.2 | 12.8 | 364 | 1.99 | 1.6 | full agonists | 58.9 | 1 | 720.4 (???-???) | 1.65 | 840 | 0.541 | 2560 | 1.612 | 860 | – | – | – |
| C=CCN1C[C@H](C(=O)N[C@H](C)CC)C=C2c3cccc4[nH]cc(c34)C[C@H]21 [Compound 8, (6aR,9R)-7-allyl-N—((R)-sec-butyl)-4,6,6a,7,8,9-hexahydroindolo[4,3-fg]quinoline-9-carboxamide] | 2.38 | 0.678 | 2.53 | 22.2 | 4.05 | 1.71 | full agonists | 0.0282 | 1 | 12.03 (9.571-14.68) | 7.9 | 174 | 3.7 | 377 | 7.7 | 180 | – | – | – |
| CC[C@@H](C)NC(=O)[C@@H]1C=C2c3cccc4[nH]cc(c34)C[C@H]2N(C)C1 [Int8, (6aR,9R)—N—((R)-sec-butyl)-7-methyl-4,6,6a,7,8,9-hexahydroindolo[4,3-fg]quinoline-9-carboxamide] | 1.07 | 10.3 | 9.69 | 71.9 | 7.32 | 4.05 | partial agonists | 0.106 | 1 | 14.34 (10.41-31.47) | 64.9 | 21.3 | 39.9 | 34.7 | 99.5 | 13.9 | < 60 | – | – |
| CCC(CC)NC(=O)[C@@H]1C=C2c3cccc4[nH]cc(c34)C[C@H]2N(C)C1 [Int14, (6aR,9R)-7-methyl-N-(pentan-3-yl)-4,6,6a,7,8,9-hexahydroindolo[4,3-fg]quinoline-9-carboxamide] | 0.47 | 15.9 | – | > 10000 | 3.63 | 1.48 | partial agonists | 1.47 | 1 | 21.63 (10.59-???) | 17.593 | 78.8 | 6.07 | 228 | 37.988 | 36.5 | < 60 | 46 | – |
| CCC[C@@H](C)NC(=O)[C@@H]1C=C2c3cccc4[nH]cc(c34)C[C@H]2N(C)C1 [Int17, (6aR,9R)-7-methyl-N—((R)-pentan-2-yl)-4,6,6a,7,8,9-hexahydroindolo[4,3-fg]quinoline-9-carboxamide] | 0.41 | 9.67 | 7.01 | 70.8 | 2.53 | 1.19 | partial agonists | 0.00405 | 0.32 | 4.96 (3.764-6.286) | 15.865 | 87.4 | 8.252 | 168 | 27.894 | 49.7 | < 60 | – | 6.0 |
